Assay results taken from publication PMC10232258 (Journal of Antimicrobial Chemotherapy, 2023).

Columns and labels:
[1] = average of five clinical studies (Table S4)
HIV-1 = settings: background statement; cited from earlier work
[2] = ref Yager et al. 50; cited from earlier work
Population PK analysis = assay type: in vivo, human; settings: for CLTFV: full model
[3] = cited from earlier work
[4] = full final model, bootstrap median

In the case of `CC(C)OC(=O)[C@H](C)N[P@](=O)(CO[C@H](C)Cn1cnc2c(N)ncnc21)Oc1ccccc1` [tenofovir alafenamide], the “Higher intracellular exposure in tenofovir diphosphate, TAF versus TDF” value [1] is given as “six-fold”, the “Potency relative to tenofovir disoproxil fumarate” value (HIV-1) is given as 10 times and the “Tenofovir diphosphate levels, TAF once every 3 days versus TDF every day” value [2] is given as 2.6 times. The “Increase of relative bioavailability F (absorption of TAF) by cobicistat” value (Population PK analysis; TAF 10 mg with cobicistat versus 25 mg alone (F = 1)) was 115% and the “Lower plasma levels of tenofovir under standard TAF versus TDF dosage” value [3] was 90%.

With `C[C@H](Cn1cnc2c(N)ncnc21)OCP(=O)(O)O` [tenofovir] the CLTFV (Population PK analysis; 80-year-olds) was 36 L/h, the “CLTFV lower than in normal kidney function” value (Population PK analysis; CLCR of 20 mL/min (stage 3 CKD) versus normal kidney function) was 57% and the “CLTFV, apparent clearance of tenofovir” value (Population PK analysis; base model, ka fixed to 2 h−1) was 39.9 L/h. The “θAge, age effect on CLTFV” value (Population PK analysis; [4]) was −0.242, the “θBlack or Hispano American, ethnicity effect on CLTFV” value (Population PK analysis; [4]) was 0.120 and the “θCobicistat, effect of cobicistat on F” value (Population PK analysis; [4]) was 1.16. For the same compound, the “θPotent P-gp inhibitors, effect on CLTFV” value (Population PK analysis; [4]) was −0.119, the “CLTFV, apparent clearance of tenofovir” value (Population PK analysis; full final model, bootstrap median (n = 2000 samples)) was 42.3 L/h and the “θBlack or Hispano American, ethnicity effect on CLTFV” value (Population PK analysis; full final model, estimate) was 0.119. The “θPotent P-gp inhibitors, effect on CLTFV” value (Population PK analysis; full final model, estimate) was −0.121, the “θAge, age effect on CLTFV” value (Population PK analysis; full final model, estimate, Agemedian = 51 years) was −0.244 and the “CLTFV, apparent clearance of tenofovir” value (Population PK analysis; full final model, estimate, CLCR-ref 100 mL/min, median age 51 years) was 42.2 L/h. For the same compound, the “VTFV, apparent volume of distribution of tenofovir” value (Population PK analysis; full final model, estimate, PLWH after oral TAF) was 2390 L, the Tmax (Population PK analysis; human, plasma, oral) was 2.4 h and the half-life (Population PK analysis; human, plasma, oral) was 46 h. It also gave a Vd (Population PK analysis; human, plasma, oral, VTFV, apparent volume of distribution of tenofovir, full final model, bootstrap median (n = 2000 samples)) of 2400 L, a CLTFV (Population PK analysis; individuals with CLCR of 20 mL/min (stage 3 CKD)) of 18 L/h and a CLTFV (Population PK analysis; normal kidney function) of 42 L/h. For the same compound, the CLTFV (Population PK analysis; younger PLWH, median age 51 years) was 42 L/h.
